Assay results reported in ChEMBL document CHEMBL1155179 (J Med Chem, 2009).

Experiments:
Type in all cases: tissue-based
[1] = target: Synaptic vesicular amine transporter (Rattus norvegicus) (UniProt Q01827); test: Ratio of Ki for displacement of [3H]DTBZ from VMAT2 dihydrotetrabenazine binding site in rat brain synaptic vesicle to Ki for inhibition of [3H]dopamine uptake at VMAT2 in rat brain synaptic vesicle
[2] = target: T1, Synaptic vesicular amine transporter (Rattus norvegicus, UniProt Q01827); test: Inhibition of [3H]dopamine uptake at VMAT2 in rat brain synaptic vesicle by liquid scintillation spectroscopy
T1 sequence (Q01827 whole entry): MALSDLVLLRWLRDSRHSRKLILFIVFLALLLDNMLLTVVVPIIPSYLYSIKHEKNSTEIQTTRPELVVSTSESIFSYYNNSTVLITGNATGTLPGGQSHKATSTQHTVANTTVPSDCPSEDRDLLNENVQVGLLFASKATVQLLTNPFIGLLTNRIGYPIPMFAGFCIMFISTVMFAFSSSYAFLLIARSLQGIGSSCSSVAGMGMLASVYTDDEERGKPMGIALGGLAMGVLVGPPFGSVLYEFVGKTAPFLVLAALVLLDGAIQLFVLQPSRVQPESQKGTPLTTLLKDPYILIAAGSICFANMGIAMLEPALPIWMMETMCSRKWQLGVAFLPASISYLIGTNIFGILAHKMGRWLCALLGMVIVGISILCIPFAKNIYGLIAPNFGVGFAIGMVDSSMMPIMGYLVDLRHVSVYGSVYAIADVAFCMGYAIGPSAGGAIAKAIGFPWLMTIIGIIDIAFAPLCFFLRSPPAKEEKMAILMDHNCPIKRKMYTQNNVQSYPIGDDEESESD

[3] = target: T1, Synaptic vesicular amine transporter; test: Displacement of [3H]DTBZ from VMAT2 dihydrotetrabenazine binding site in rat brain synaptic vesicle by scintillation counting

Chain of Synaptic vesicular amine transporter (Rattus norvegicus) (Q01827 whole entry): as above

Row | SMILES | Ratio Ki [1] | Ki [2] | Ki [3]
1 | CN1[C@H](CCCc2ccccc2)CC[C@@H]1CCCc1ccccc1 | 23.2 | 0.12 µM | 2.78 µM
2 | c1ccc(CCC[C@@H]2CC[C@H](CCCc3ccccc3)N2)cc1 | 19.3 | 0.014 µM | 0.27 µM
3 | c1ccc(CC[C@@H]2CC[C@@H](CCc3ccccc3)N2)cc1 | 63 | 0.054 µM | 3.4 µM
4 | OC[C@@H](c1ccccc1)N1[C@@H](CCc2ccccc2)CC[C@@H]1CCc1ccccc1 | 20.7 | 0.27 µM | 5.61 µM
5 | c1ccc(CC[C@H]2CCC[C@@H](CCc3ccccc3)N2)cc1 | 100 | 0.023 µM | –
6 | CN1[C@@H](CCc2ccccc2)CC[C@@H]1CCc1ccccc1 | 85 | 0.17 µM | 14.5 µM
7 | OC[C@H](c1ccccc1)N1[C@H](CCc2ccccc2)CC[C@@H]1CCc1ccccc1 | 3.36 | 1.29 µM | 4.34 µM
8 | OC[C@H](c1ccccc1)N1[C@H](CCc2ccccc2)CC[C@H]1CCc1ccccc1 | 2.6 | 1.94 µM | 5.05 µM
9 | CN1[C@@H](Cc2ccccc2)CC[C@H]1Cc1ccccc1 | 130 | 0.019 µM | 2.46 µM
10 | CN1[C@H](CCc2ccccc2)CC[C@@H]1CCc1ccccc1 | 32.6 | 0.27 µM | 8.8 µM
11 | c1ccc(C[C@H]2CC[C@@H](Cc3ccccc3)N2)cc1 | 176 | 0.0093 µM | 1.64 µM
12 | CN1[C@H](CCc2ccccc2)CC[C@H]1CCc1ccccc1 | 33.1 | 0.12 µM | 3.97 µM
13 | OC[C@@H](c1ccccc1)N1[C@H](CCc2ccccc2)CC[C@@H]1CCc1ccccc1 | 19.6 | 0.14 µM | 2.75 µM
14 | c1ccc(CC[C@@H]2CC[C@H](CCc3ccccc3)N2)cc1 | 106 | 0.029 µM | 3.06 µM
15 | c1ccc(CC[C@H]2CC[C@H](CCc3ccccc3)N2)cc1 | 38 | 0.035 µM | 1.33 µM
